Experimental data published in patent publication US11976038B1 (priority 2023, dated 2024).
Where two headings read alike, the source gives them in different places. Blank lines part the entries; values can stand above or below the molecule they belong to.

How the values were obtained:
[1] = background statement; cited from earlier work
[2] = assay type: physicochemical
Method: An appropriate amount of pure product of Embodiment 1 (about 50 mg) was weighed into a small aluminium box, and the weight of the sample was recorded after equilibration. For a thermogravimetric equipment, the temperature was selected to be 0° C. to 500° C., the heating rate to be 20° C./min, and the nitrogen flow rate to be 100 mL/min, and a thermogravimetric change curve was recorded. The initial reaction temperature was 300° C. according to a baseline extrapolation method. […] Curves A and B in FIG. 2 represent the rate of mass change and the mass change with increasing temperature, respectively.

[3] = background statement; cited from earlier work; remark: listed apart in the source
[4] = corn oil, 200 ppm; for Acid value / Conjugated diene value / Peroxide value: 60° C., after 6 days; for Conjugated diene value: absorbance 232 nm
[5] = corn oil, 200 ppm, oxidation induction time at 20° C. calculated from 100-130° C.
[6] = listed as Pure product of Comparative Example 5
[7] = listed as Pure product of Comparative Example 4

initial reaction temperature (thermal stability temperature) [2]: 290 °C
Molecule: Oc1ccc(C=Cc2cc(O)cc(O)c2)cc1 [Resveratrol, 3, 4′, 5-trihydroxystilbene]
solubility in oil [1]: 0.98 µg/g
oral bioavailability [3]: < 1%

Molecule: resveratrol conjugated linoleate [Comparative Example 5]
Acid value [4]: 0.60 mgKOH/g
Conjugated diene value [4, 6]: 3.65
Peroxide value [4, 6]: 27.5 meq/kg
Shelf life [5, 6]: 71.3 days

initial reaction temperature (thermal stability temperature) [2]: 300 °C
Molecule: resveratrol nervonic acid ester [Embodiment 1]
antioxidant activity (DPPH radical scavenging activity) (10 mg in 1 mL 80% methanol, 30 min dark, 517 nm): 90.00%
antioxidant activity relative to resveratrol (DPPH, ratio to resveratrol): 1.03 times
acid value versus resveratrol and blank control (FIG. 4) ([4]; 60° C., 0, 1, 3, 6 days): basically lower than those of resveratrol and blank control
conjugated diene value versus resveratrol and blank control (FIG. 5) ([4]; 60° C., 0, 1, 3, 6 days): basically lower than those of resveratrol and blank control
peroxide value versus resveratrol and blank control (FIG. 3) ([4]; 60° C., 0, 1, 3, 6 days): basically lower than those of resveratrol and blank control
Acid value [4]: 0.55 mgKOH/g
Peroxide value [4]: 26.5 meq/kg
Conjugated diene value [4]: 3.33
Shelf life [5]: 78.2 days

Molecule: resveratrol conjugated linoleate [Comparative Example 4]
Conjugated diene value [4, 7]: 3.60
Peroxide value [4, 7]: 27 meq/kg
Shelf life [5, 7]: 71.4 days
